Test results from patent US20230277508A1, “USE OF COMPOUND AS CYP2E1 INHIBITOR” (SHANGHAI LING XI BIOTECHNOLOGY DEVELOPMENT CO., LTD., priority 2020, published 2023).

How the values were obtained:
[1] = tested on: LPS-induced acute lung injury (ALI) in mice; assay: LPS-induced mouse lung injury; format: in vivo, C57BL/6N mouse
Description: Experimental method: A C57BL/6N mouse pulmonary fibrosis model was established through intratracheal instillation with 8 mg/kg LPS. An SMI0 intervention group was divided into a low-dose group and a high-dose group, which were intragastrically administered with the compound SMI0 respectively at 30 mg/kg and 90 mg/kg every day from three days before modeling until 6 h before the end of the modeling (control group, n=8; model group, n=8; and SMI0 compound high-dose group, n=8). At the end of the experiment, a body weight of mice in each group was recorded, blood was collected from the orbit, the mice were sacrificed, and lung tissues were collected and weighed. The left lungs were fixed in 4% formalin and subjected to HE staining.
Experimental method: A neutrophil level in a mouse lung tissue was evaluated through immunohistochemistry (IHC) staining, and an immunostaining-positive area percentage was quantitatively evaluated by Image-Pro Plus software. RNA of a mouse lung tissue was extracted by a kit method, and expression levels of TNF-α and IL-1β in lung tissues of mice were determined by RT-PCR.

[2] = tested on: LPS-induced sepsis in rats; assay: LPS-induced rat sepsis model; format: in vivo, SD rat; details: SMI0 150 mg/kg ig or celecoxib 5 mg/kg ig 30 min before LPS 5 mg/kg ip; 4 h, 5 h, 6 h; vs model group
Description: Rats: An SD rat sepsis model was constructed through single intraperitoneal injection of LPS (5 mg/kg). 30 min before LPS administration, rats in the model group were administered with NS (0.5 mL/kg, i.g.), rats in the positive control group were administered with celecoxib (5 mg/kg, i.g.), and rats in the CYP2E1 inhibition group were administered with the compound SMI0 (150 mg/kg, i.g.). After LPS administration, a body temperature of each rat was measured and recorded every hour until 9 h (control group, n=8 rats; model group, n=10 rats; celecoxib group, n=10 rats; and SMI0 compound group, n=10 rats).

[3] = tested on: cognitive dysfunction in STZ-induced AD rat model; assay: STZ-induced AD rat model, Morris water maze; format: in vivo, SD rat; details: for Number of crossing platform / Time spent in the platform quadrant: MWM spatial exploration; for Number of crossing platform / Time spent in the platform quadrant / Incubation period Day 1 / Incubation period Day 2 / Incubation period Day 3 / Incubation period Day 4 / Incubation period Day 5 / Incubation period Day 6: n=15; for Incubation period Day 1 / Incubation period Day 2 / Incubation period Day 3 / Incubation period Day 4 / Incubation period Day 5 / Incubation period Day 6: MWM
Description: Experimental method: A male SD rat AD model was constructed through bilateral intracerebroventricular injection of STZ, where STZ was injected at 3 mg/kg on day 1 and STZ was injected at 1.5 mg/kg on day 3. STZ was injected into bilateral cerebral ventricles (0.9 mm posterior to the anterior fontanelle, 1.5 mm at the left or right of the sagittal suture, and below the brain surface and 3.8 mm to the skull) by a brain stereotaxic instrument. The sham-operated group was injected with a same volume of a control solvent according to same operations. The low-dose and high-dose prevention and treatment groups were intragastrically administered with the compound SMI0 respectively at 10 mg/kg and 30 mg/kg starting from day 11 after modeling, and the administration was conducted consecutively for 21 d. On day 14 of the continuous administration (that is, on […] of modeling), the Morris water maze (MWM) was used to conduct spatial positioning navigation training consecutively for 6 d, and a spatial exploration experiment was conducted 24 h after the spatial positioning navigation training was completed (15 rats in each group).

[4] = tested on: ID-8 cells; assay: In vitro inhibition experiment on ID-8 cells; format: cell-based, murine; details: 0 μM to 320 μM, 48 h
[5] = tested on: B16-F10 cell lung metastasis; assay: Lung metastasis model, tail vein injection of melanoma cell B16-F10; format: in vivo, C57BL/6 mouse; details: SMI0 30 mg/kg, 14 days
Description: Experimental method: A female C57BL/6 mouse lung metastasis model was constructed through tail vein injection of a melanoma cell B16-F10, with a cell amount of 8*10^5. Mice were divided into a control group, a model group, and an SMI0 intervention group, and the modeling took 14 days (control group, n=5; model group, n=5; and SMI0 (30 mg/kg), n=4). At the end of the experiment, a body weight of mice in each group was recorded, blood was collected from the orbit, the mice were sacrificed, and lung tissues were collected and weighed. The lung tissues were fixed in a formalin solution for 24 h, and a number of lung nodules of mice in each group was recorded.

[6] = tested on: Lewis lung cancer cells; assay: Direct effect on proliferation of Lewis lung cancer cells (CCK8); format: cell-based; details: up to 100 μmol/L, 24 h
Description: Experimental method: Lewis lung cancer cells and A549 lung cancer cells in a logarithmic growth phase each were selected and inoculated into a 96-well plate at a concentration of 1*10^5 cells/mL, then 100 μL of a basic medium including SMI0 at different concentrations (0 μmol/L, 0.16 μmol/L, 0.8 μmol/L, 4 μmol/L, 20 μmol/L, and 100 μmol/L) was added to each well, and 24 h later, 10 μL of a CCK8 reagent was added to each well; and the cells were further cultivated for 2 h, and an absorbance OD value of each well was determined at 450 nm by a microplate reader. 3 replicates were set for each well, and an average was taken. The proliferation activity was calculated based on the OD value.

[7] = tested on: HepG2 liver cancer cells / macrophage RAW264.7; assay: HepG2 cells co-cultivated with RAW264.7 macrophage supernatant; format: cell-based; details: SMI0 intervention groups (especially 4 μmol/L) vs macrophage co-cultivation group, P<0.001
Description: Experimental method: A supernatant of a murine macrophage RAW264.7 was collected to establish a co-cultivation system with the HepG2 liver cancer cell, thereby simulating a macrophage inflammatory microenvironment of liver cancer. In the SMI0 intervention groups, SMI0 was added at different concentrations (0 μmol/L, 0.16 μmol/L, 0.8 μmol/L, 4 μmol/L, 20 μmol/L, and 100 μmol/L) while interleukin was added for induction. Culture supernatants of the SMI0 intervention groups were collected to prepare conditional media. HepG2 liver cancer cells in a logarithmic growth phase were adopted. The proliferation activity of HepG2 was determined by a CCK8 method, a migration ability of HepG2 was determined by wound-healing assay, and an apoptosis ability of HepG2 was determined by FCM.

[8] = RT-PCR, SMI0 high-dose group vs model group, P<0.05

**Q.** `CC(=O)c1scnc1C` [SMI0] was tested. Which “expression level of IL-1β in the lung tissue” value [1, 8] did it give?
**A.** Its value is “significantly reduced”.

**Q.** What about the “expression level of TNF-α in the lung tissue” value [1, 8] of the same compound?
**A.** Its value is “significantly reduced”.

**Q.** What about the lung injury score ([1]; SMI0 administration group vs model group) of the same compound?
**A.** Its lung injury score is “significant reduced”.

**Q.** What about the “MPO immunostaining-positive area percentage in lung tissue” value ([1]; SMI0 high-dose group vs model group, P<0.05) of the same compound?
**A.** Its value is “significantly reduced”.

**Q.** And the lung index ([1]; both SMI0 low-dose (30 mg/kg) and high-dose (90 mg/kg) groups, ig daily, vs model group, P<0.01)?
**A.** The lung index was “significantly reduced”.

**Q.** And the “increase in body temperature in the LPS-induced sepsis rat model” value [2]?
**A.** Its value is “avoided”.

**Q.** What about the “Number of crossing platform” value ([3]; SMI0 10 mg/kg ig) of the same compound?
**A.** The value was 5.1.

**Q.** And the “Time spent in the platform quadrant” value ([3]; SMI0 10 mg/kg ig)?
**A.** Its value is 29.4%.

**Q.** What about the “Number of crossing platform” value ([3]; SMI0 30 mg/kg ig) of the same compound?
**A.** Its value is 8.2.

**Q.** What about the “Time spent in the platform quadrant” value ([3]; SMI0 30 mg/kg ig) of the same compound?
**A.** Its value is 39.3%.

**Q.** What about the “Incubation period Day 1” value ([3]; SMI0 10 mg/kg ig for 21 d) of the same compound?
**A.** The value was 95.7 s.

**Q.** What about the “Incubation period Day 2” value ([3]; SMI0 10 mg/kg ig for 21 d) of the same compound?
**A.** Its value is 61.1 s.

**Q.** And the “Incubation period Day 3” value ([3]; SMI0 10 mg/kg ig for 21 d)?
**A.** The value was 39.5 s.

**Q.** And the “Incubation period Day 4” value ([3]; SMI0 10 mg/kg ig for 21 d)?
**A.** The value was 33.2 s.

**Q.** And the “Incubation period Day 5” value ([3]; SMI0 10 mg/kg ig for 21 d)?
**A.** The value was 23.1 s.

**Q.** What about the “Incubation period Day 6” value ([3]; SMI0 10 mg/kg ig for 21 d) of the same compound?
**A.** Its value is 18.5 s.

**Q.** What about the “Incubation period Day 1” value ([3]; SMI0 30 mg/kg ig for 21 d) of the same compound?
**A.** The value was 94.6 s.

**Q.** And the “Incubation period Day 2” value ([3]; SMI0 30 mg/kg ig for 21 d)?
**A.** The value was 52.7 s.

**Q.** What about the “Incubation period Day 3” value ([3]; SMI0 30 mg/kg ig for 21 d) of the same compound?
**A.** Its value is 35.9 s.

**Q.** What about the “Incubation period Day 4” value ([3]; SMI0 30 mg/kg ig for 21 d) of the same compound?
**A.** The value was 25.2 s.

**Q.** And the “Incubation period Day 5” value ([3]; SMI0 30 mg/kg ig for 21 d)?
**A.** Its value is 20.0 s.

**Q.** And the “Incubation period Day 6” value ([3]; SMI0 30 mg/kg ig for 21 d)?
**A.** The value was 18.6 s.

**Q.** What about the “improvement rate of ICV-STZ-induced cognitive dysfunction” value ([3]; SMI0 high-dose group (30 mg/kg), vs model group, significant) of the same compound?
**A.** Its value is 46.7%.

**Q.** And the “improvement rate of ICV-STZ-induced cognitive dysfunction” value ([3]; SMI0 low-dose group (10 mg/kg), without a significant statistical difference)?
**A.** Its value is 32.6%.

**Q.** And the “inhibitory effect on ID-8” value [4]?
**A.** Its value is “no significant inhibitory effect”.

**Q.** And the lung weight ([5]; vs model group)?
**A.** Its lung weight is “significantly reduced”.

**Q.** And the number of nodules ([5]; vs model group)?
**A.** Its number of nodules is “significantly reduced”.

**Q.** And the “tumor proliferation inhibition rate” value ([5]; as high as)?
**A.** Its value is 58.3%.

**Q.** What about the “effect on the proliferation of Lewis lung cancer cells” value [6] of the same compound?
**A.** Its value is “no significant inhibitory effect”.

**Q.** And the “apoptosis ability of HepG2 liver cancer cells” value [7]?
**A.** Its value is “significantly enhanced”.

**Q.** And the “migration ability of HepG2 liver cancer cells” value [7]?
**A.** Its value is “significantly weakened”.

**Q.** What about the “proliferation activity of HepG2 liver cancer cells” value [7] of the same compound?
**A.** The value was “significantly weakened”.
